14 molecules from US4070473A, “Piperidino-butyrophenones” (AB Ferrosan, priority 1973, dated 1978) can be followed below.

SMILES strings stand for the structures. Counter-ions that a name gives are not always drawn. Like-named read-outs stand apart in the source and are kept apart here.

The ED50 is the dose that gives a 50% effect, or the effect in half of the subjects. For orientation: LD50 means the dose expected to kill half of the subjects tested. High values mean lower toxicity, low ones greater toxicity.

For data set [1], the system named is exploratory behaviour, mice. The data set can be described thus: Inhibition of climbing in mice (inhibition of exploratory behaviour) (Test 2). The conditions noted are these: Mus musculus, sc, read-out: Inhibition of exploratory behaviour, mice ED50. It is filed as in vivo. The text has this:
2. Inhibition of climbing in mice (inhibition of exploratory behaviour).
2. Sandberg, S. in Arzneimittelforschung, 9, 203 (1958)

The subject of data set [2] is conditioned avoidance response, rats. The data set can be described thus: Inhibition of conditioned behaviour (conditioned avoidance response) in rats (Test 5). Particulars: Rattus norvegicus, sc, read-out: Inhibition of conditioned avoidance response, rats ED50. It is filed as in vivo. An excerpt: 5. Inhibition of conditioned behaviour in rats. These tests were in accord with published test procedures and protocols, for instance: 5.

Data set [3] in a line: Cataleptogenic effect in rats (measure of the extrapyramidal side effects) (Test 4). The conditions noted are these: rat, in vivo, sc. The class given is in vivo. An excerpt:
(§1) 4. Cataleptogenic effect in rats (measure of the extrapyramidal side effects).
(§2) 4. Stille, G. in Schweiz.

Data set [4] relates to Amphetamine antagonism, rats. Description: Amphetamine antagonism in rats (antipsychotic effect) (Test 3). The class given is in vivo. Particulars: for ED50: Rattus norvegicus, sc, read-out: Amphetamine antagonism, rats ED50; for activity in Test 3 (amphetamine antagonism; antipsychotic/anxiolytic effect), in words: Table-Test No. 3. The text has this: 3. Amphetamine antagonism in rats (antipsychotic effect).
3. Randrup, A. et al. in Acta Pharmacol. (Kph), 20, 145 (1963)

Data set [5] concerns aggressive behaviour in male mice. The data set can be described thus: Inhibition of aggressive behaviour in male mice (Test 1). It is filed as in vivo. Particulars: for ED50: Mus musculus, sc, read-out: Inhibition of agression, mice ED50. An excerpt:
Methylperon -- formula hereinbefore mentioned (R3 = H; R4 = CH3) chlorpromazine [drawing 23] in each of the following established standard tests: 1. Inhibition of aggressive behaviour in male mice.
1. Valzelli, L. in Aggressive Behaviour, Eds. Garattini and Sigg, p. 70 (1969)

Data set [6] is described as follows: Toxicity, subcutaneously on mice. The conditions noted are these: mouse, in vivo, sc. The text has this:
The antipsychotic effect as shown in Test No. 3 is further confirmed by the blocking of apomorphine emesis in dogs. Ref: Janssen, P. A. J. et al. Arzneimittelforschung, 1, 1196 (1965) Furthermore, the compounds have a pronounced serotonine inhibiting effect, Ref: Alps, J. et al. Br. J. Pharmac. 44, 52 (1972) and a strong anti-inflammatory effect (measured with carrageenin-induced edema in rats). Ref: Takashima, T. et al. Arzneimittelforschung 22, 711 (1972) Their toxicity is rather low, 200 - 300 mg/kg. In comparison, the toxicity for haloperidol is 70 mg/kg and for methylperon is 280 mg/kg (all toxicities being performed subcutaneously on mice).

Data set [7] relates to Cataleptogenic effect, rats. Description: Cataleptogenic effect in rats (measure of the extrapyramidal side effects) (Test 4). It is filed as in vivo. Particulars: rats, Table-Test No. 4.
Description: as §1, §2

The mark [8] stands for this setting: rats, s.c., measure of the extrapyramidal side effects, read-out: Cataleptogenic effect, rats ED50.

Regarding `CN(C)CCCN1c2ccccc2Sc2ccc(Cl)cc21` [Chlorpromazine, reference compound], the ED50 in data set [1] came to 0.75 mg/kg; in data set [2], 4.5 mg/kg; in data set [3] (setting [8]) it was 4.5 mg/kg; in data set [4], 1.2 mg/kg; in data set [5] it was 0.4 mg/kg. In data set [4], the “activity in Test 3 (amphetamine antagonism; antipsychotic/anxiolytic effect), in words” value is “not very active”.

For the molecule `COC1(C)CCN(CCCC(=O)c2ccc(F)cc2)CC1` [Example 1, gamma-(4-methyl-4-methoxy-piperidino)-p-fluorobutyrophenone], the ED50 is 0.65 mg/kg in data set [1] (mice, s.c.); 0.6 mg/kg in data set [2] (rats, s.c.); 10 mg/kg in data set [3] (setting [8]); 0.35 mg/kg in data set [4] (rats, s.c.); 0.2 mg/kg in data set [5] (mice, s.c.).

For `CCOC1(C)CCN(CCCC(=O)c2ccc(F)cc2)CC1` [Example 2], the ED50 in data set [1] (mice, s.c.) worked out at 1 mg/kg; in data set [2] (rats, s.c.), 1.3 mg/kg; in data set [3] (setting [8]), 6 mg/kg; in data set [4] (rats, s.c.) it was 0.1 mg/kg; in data set [5] (mice, s.c.), 0.7 mg/kg.

On to `CCCOC1(C)CCN(CCCC(=O)c2ccc(F)cc2)CC1` [Example 3], for which the ED50 in data set [1] (mice, s.c.) is 1 mg/kg; in data set [2] (rats, s.c.), 0.5 mg/kg; in data set [3] (setting [8]) it was 7 mg/kg; in data set [4] (rats, s.c.), 0.2 mg/kg; in data set [5] (mice, s.c.) it was 0.35 mg/kg.

On to `CCCCOC1(C)CCN(CCCC(=O)c2ccc(F)cc2)CC1.Cl` [Example 4, gamma-(4-methyl-4-butoxypiperidino)-p-fluorobutyrophenone hydrochloride], for which the ED50 worked out at 2 mg/kg in data set [1] (mice, s.c.); 2.5 mg/kg in data set [2] (rats, s.c.); 20 mg/kg in data set [3] (setting [8]); 0.75 mg/kg in data set [4] (rats, s.c.); 0.35 mg/kg in data set [5] (mice, s.c.).

`CCC1(OC)CCN(CCCC(=O)c2ccc(F)cc2)CC1` [Example 5]: the ED50 in data set [1] (mice, s.c.) is 0.7 mg/kg; in data set [2] (rats, s.c.), 1.5 mg/kg; in data set [3] (setting [8]), 10 mg/kg; in data set [4] (rats, s.c.), 0.1 mg/kg; in data set [5] (mice, s.c.) it was 0.7 mg/kg.

In the case of `CCOC1(CC)CCN(CCCC(=O)c2ccc(F)cc2)CC1` [Example 6, gamma-(4-ethyl-4-ethoxypiperidino)-p-fluoro-4-butyrophenone hydrochloride], the ED50 in data set [1] (mice, s.c.) is 1.4 mg/kg; in data set [2] (rats, s.c.) it was 1.5 mg/kg; in data set [3] (setting [8]) it was 5 mg/kg; in data set [4] (rats, s.c.), 0.1 mg/kg; in data set [5] (mice, s.c.), 0.08 mg/kg.

On to `CCCOC1(CC)CCN(CCCC(=O)c2ccc(F)cc2)CC1` [Example 7], for which the ED50 in data set [1] (mice, s.c.) turned out to be 1.2 mg/kg; in data set [3] (setting [8]), 6 mg/kg; in data set [4] (rats, s.c.) it was 0.35 mg/kg; in data set [5] (mice, s.c.), 0.7 mg/kg.

For `CCCC1(OC)CCN(CCCC(=O)c2ccc(F)cc2)CC1` [Example 8], the ED50 in data set [1] (mice, s.c.) is 3.1 mg/kg; in data set [2] (rats, s.c.) it was 5.5 mg/kg; in data set [3] (setting [8]) it was 6.2 mg/kg; in data set [4] (rats, s.c.) it was 1 mg/kg; in data set [5] (mice, s.c.), 0.5 mg/kg.

`COC1(C(C)C)CCN(CCCC(=O)c2ccc(F)cc2)CC1.Cl` [Example 10, gamma-(4-isopropyl-4-methoxy-piperidino)-p-fluorobutyrophenone hydrochloride]: the ED50 in data set [1] (mice, s.c.) turned out to be 1.1 mg/kg; in data set [2] (rats, s.c.), 1.2 mg/kg; in data set [3] (setting [8]), 5 mg/kg; in data set [4] (rats, s.c.), 0.1 mg/kg; in data set [5] (mice, s.c.) it was 0.15 mg/kg.

Take `CCCCC1(OCC)CCN(CCCC(=O)c2ccc(F)cc2)CC1` [Example 12]: the ED50 in data set [1] (mice, s.c.) worked out at 1.6 mg/kg; in data set [2] (rats, s.c.) it was 5 mg/kg; in data set [3] (setting [8]) it was 3 mg/kg; in data set [4] (rats, s.c.), 0.07 mg/kg; in data set [5] (mice, s.c.) it was 0.35 mg/kg.

On to `CCCCCC1(OCC)CCN(CCCC(=O)c2ccc(F)cc2)CC1` [Example 13], for which the ED50 in data set [1] (mice, s.c.) worked out at 1.3 mg/kg; in data set [3] (setting [8]), 6.8 mg/kg; in data set [4] (rats, s.c.), 0.35 mg/kg; in data set [5] (mice, s.c.), 0.5 mg/kg.

`O=C(CCCN1CCC(O)(c2ccc(Cl)cc2)CC1)c1ccc(F)cc1` [Haloperidol, reference compound] had a 50% lethal dose (LD50) in data set [6] of 70 mg/kg. Also, the ED50 in data set [1] was determined as 1.3 mg/kg; in data set [2], 0.15 mg/kg; in data set [3] (setting [8]), 0.27 mg/kg; in data set [4] it was 0.03 mg/kg; in data set [5] it was 0.8 mg/kg. Also, in data set [7], the “extrapyramidal / cataleptogenic effect, in words” value is on record as “pronounced cataleptogenic effect in rats”.

Regarding `CC1CCN(CCCC(=O)c2ccc(F)cc2)CC1` [Methylperon, reference compound], in data set [6], the LD50 amounted to 280 mg/kg. Further, the ED50 amounted to 2 mg/kg in data set [1] (mice, s.c.); 6.8 mg/kg in data set [2] (rats, s.c.); 12 mg/kg in data set [3]; 3.5 mg/kg in data set [4] (rats, s.c.); 2.2 mg/kg in data set [5] (mice, s.c.). Moreover, the “activity in Test 3 (amphetamine antagonism; antipsychotic/anxiolytic effect), in words” value in data set [4] was “not very active”. The “activity in Test 1 (antiaggressive), in words” value in data set [5] (Table-Test No. 1) was “not very active”.
